According to patent US7521418B2, “Use of a polyene macrolide antifungal agent in combination with a glycopeptide antibacterial agent” (Theravance, Inc., priority 2003, dated 2009):

Experiments:
C. albicans ATCC 24433 = experiment: Checkerboard MIC assay, FICI; assay type: cell-based, Candida albicans; conditions: combination with Compound 1; C. albicans ATCC 24433
Excerpt: The following assay was used to determine the minimum inhibitory concentration (MIC) and fractional inhibitory concentration index (FICI) for combinations of an antifungal agent and a glycopeptide antibacterial agent. This assay and methods for calculating FICI are well known in the art. See, for example, Eliopoulos, E. G. and R. Moellering, Jr. “Antimicrobial Combinations” in Antibiotics in Laboratory Medicine, edited by V. Lorian, 4th Ed., Williams & Wilkins, Baltimore, MD, pp. 330-396 (1996); […] et al., Antimicrobial Agents and Chemotherapy 47(4):1416-1418 (2003); or […] et al., Antimicrobial Agents and Chemotherapy 46(10):3323-3326 (2002). Procedures, protocols, supplies and equipment used in this assay follow the recommendations approved and published by the National Committee for Clinical Laboratory Standards (NCCLS), Wayne, Pa. as described in NCCLS 2003, “Reference Method for Broth Dilution Antimicrobial Susceptibility Tests for Bacteria that Grow Aerobically; Approved Standard” (NCCLS document M7-A6); NCCLS 2002, “Reference Method for Broth Dilution Antifungal Susceptibility Tests of Filamentous Fungi that Grow Aerobically; Approved Standard” (NCCLS document M38-A); and NCCLS 2002 “Reference Method for Broth Dilution Antifungal Susceptibility Tests of Yeast; Approved Standards-2nd Edition” (NCCLS document M27-A2). Using a checkerboard method, a 2-fold dilution 100× final concentration master plate was prepared using a 96-well U-shape microtiter plate and an appropriate solvent. In the “checkerboard” method, a microtiter plate is divided into “columns” in which each well in the column contains the same amount of an antifungal agent (Compound A) being diluted along the x-axis, and “rows” in which each well in the row contains the same amount of a glycopeptide antibacterial agent (Compound B) being diluted on the y-axis. Also included is a row (or column) for Compound A or B alone. The dilutions used in the checkerboard are exponential (by powers of two). The result is that each well in the microtiter plate contains a unique concentration of the two compounds being tested. […] After mixing, 100 μL of 2× drug combinations were distributed into 96-well microtiter plates. […] Compound A was not added to Column 12, so Column 12 contained only Compound B. Compound B was diluted from row A starting at 6,400 μg/mL down to row G (100 μg/mL). Wells in Row A contained a final concentration of 64 μg/mL of Compound B; Row B contained a final concentration of 32 μg/mL of Compound B; Row C contained a final concentration of 16 μg/mL of Compound B; etc. Compound B was not added to Row H, so Row H only contained Compound A. […] The MIC of the glycopeptide antibacterial agent determined from this experiment was used in FIC calculations. […] RPMI-1640 without sodium bicarbonate media (GIBCO-BRL, Carlsbad, Calif.), an enriched media formulated for mammalian cells, was used according to the NCCLS guidelines for yeast and filamentous fungi susceptibility testing. The medium was buffered with 0.165 M 3-[N-Morpholino]propanesulfonic acid (MOPS) supplemented with 20 g/L glucose and pH adjusted to 7.0 with hydrogen chloride. Sabouraud Dextrose Agar ([…] plates, and Potato Dextrose Agar (PDA) plates were purchased from Hardy Diagnostic (Santa Maria, Calif.). Yeast cultures were started from -80° C. frozen stock streaked on […] incubated at 35° C. under aerobic conditions for 24 h. The […] in the refrigerator for up to 2 weeks and used regularly as a starting culture. About 24 to 48 h before each assay was run, yeasts were streaked on SDA plates for isolated colonies. To prepare the inoculum, from one to four colonies were resuspended in 5 mL of saline, and vortexed for 15 sec. […] For most yeast and mold cultures, the optical density (OD) of the suspension was adjusted to 0.11 in saline to provide 0.4×10^6 CFU/mL. However, for Fusarium moniliforme and Pseudallescheria boydii the OD of the suspension was adjusted to OD=0.17 to provide 0.4×10^6 CFU/mL. […]

C. neoformans ATCC 56991 = experiment: Checkerboard MIC assay, FICI; assay type: cell-based, Cryptococcus neoformans; conditions: combination with Compound 1
Excerpt: The following assay was used to determine the minimum inhibitory concentration (MIC) and fractional inhibitory concentration index (FICI) for combinations of an antifungal agent and a glycopeptide antibacterial agent. This assay and methods for calculating FICI are well known in the art. See, for example, Eliopoulos, E. G. and R. Moellering, Jr. “Antimicrobial Combinations” in Antibiotics in Laboratory Medicine, edited by V. Lorian, 4th Ed., Williams & Wilkins, Baltimore, MD, pp. 330-396 (1996); […] et al., Antimicrobial Agents and Chemotherapy 47(4):1416-1418 (2003); or […] et al., Antimicrobial Agents and Chemotherapy 46(10):3323-3326 (2002). […] The MIC of the glycopeptide antibacterial agent determined from this experiment was used in FIC calculations. […]

Compound `C[C@@H]1[C@H](O)[C@@H](C)/C=C/C=C/C=C/C=C/C=C/C=C/C=C/[C@H](O[C@@H]2O[C@H](C)[C@@H](O)[C@H](N)[C@@H]2O)C[C@@H]2O[C@](O)(C[C@@H](O)C[C@@H](O)[C@H](O)CC[C@@H](O)C[C@@H](O)CC(=O)O[C@H]1C)C[C@H](O)[C@H]2C(=O)O` [Amphotericin B] has an FICI (C. albicans ATCC 24433) of 0.19 and an FICI (C. neoformans ATCC 56991) of 0.25.
`C[C@@H]1[C@H](O)[C@@H](C)/C=C/C=C/CC/C=C/C=C/C=C/C=C/C(O[C@H]2O[C@H](C)[C@@H](O)[C@H](N)[C@@H]2O)CC2O[C@](O)(CC(O)C(O)CCC(O)CC(O)CC(O)CC(=O)O[C@H]1C)CC(O)C2C(=O)O` (stereo partly shown) [Nystatin] was tested, and the FICI (C. albicans ATCC 24433) was 0.31 and the FICI (C. neoformans ATCC 56991) was 0.5.
